Measured values reported in ChEMBL document CHEMBL1201862, “PubChem BioAssay data set” (2004).
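Exposure lasted 48 hours, with cells grown in 96-well plates and compounds tested at five concentrations. Here, GI50 denotes the concentration required for 50% inhibition of growth.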 The source made the active and inactive calls. Cut-off read from the data, not from the text of the source: active = GI50 up to about 1.1 µM and inactive = higher.

Experiments:
Assay in all cases: DTP human tumour cell line panel, 48 h
CCRF-CEM = system: CCRF-CEM
COLO 205 = system: COLO 205
EKVX = system: EKVX
HCT-116 = system: HCT-116
HT-29 = system: HT-29
IGROV-1 = system: IGROV-1
K562 = system: K562
LOX IMVI = system: LOX IMVI
MOLT-4 = system: MOLT-4
Malme-3M = system: Malme-3M
OVCAR-3 = system: OVCAR-3
OVCAR-4 = system: OVCAR-4
RPMI-8226 = system: RPMI-8226
SF-268 = system: SF-268
SF-295 = system: SF-295
SK-OV-3 = system: SK-OV-3
SNB-75 = system: SNB-75
UACC-257 = system: UACC-257

SMILES | GI50 (CCRF-CEM) | GI50 (COLO 205) | GI50 (EKVX) | GI50 (HCT-116) | GI50 (HT-29) | GI50 (IGROV-1) | GI50 (K562) | GI50 (LOX IMVI) | GI50 (MOLT-4) | GI50 (Malme-3M) | GI50 (OVCAR-3) | GI50 (OVCAR-4) | GI50 (RPMI-8226) | GI50 (SF-268) | GI50 (SF-295) | GI50 (SK-OV-3) | GI50 (SNB-75) | GI50 (UACC-257)
CC1CC2OC(=O)C3CC(O)CC(=C23)[C@@]12C[C@@H](c1ccoc1)OC2=O (some centres not stated) | > 100 µM (inactive) | > 100 µM (inactive) | > 100 µM (inactive) | > 100 µM (inactive) | > 100 µM (inactive) | > 100 µM (inactive) | > 100 µM (inactive) | > 100 µM (inactive) | > 100 µM (inactive) | > 100 µM (inactive) | > 100 µM (inactive) | > 100 µM (inactive) | > 100 µM (inactive) | > 100 µM (inactive) | > 100 µM (inactive) | > 100 µM (inactive) | > 100 µM (inactive) | > 100 µM (inactive)
Ic1cc2c(cc1C1SCCCS1)OCO2 | > 100 µM (inactive) | > 100 µM (inactive) | > 100 µM (inactive) | > 100 µM (inactive) | > 100 µM (inactive) | > 100 µM (inactive) | > 100 µM (inactive) | > 100 µM (inactive) | > 100 µM (inactive) | > 100 µM (inactive) | > 100 µM (inactive) | > 100 µM (inactive) | > 100 µM (inactive) | > 100 µM (inactive) | > 100 µM (inactive) | > 100 µM (inactive) | > 100 µM (inactive) | > 100 µM (inactive)
O=c1c2cc(Br)ccc2nc(CCl)n1-c1ccc(O)c([N+](=O)[O-])c1 | 22.4 µM (inactive) | 20.3 µM (inactive) | 17.5 µM (inactive) |  | 27.7 µM (inactive) | 24 µM (inactive) | 22.4 µM (inactive) | 19 µM (inactive) | 23.1 µM (inactive) | 17.5 µM (inactive) | 18.2 µM (inactive) | 18.7 µM (inactive) | 25 µM (inactive) | 20.8 µM (inactive) | 16.3 µM (inactive) | 37.8 µM (inactive) | 20.8 µM (inactive) | 19.1 µM (inactive)
C[P+]1(c2ccccc2)CCCCC1 | > 100 µM (inactive) | > 100 µM (inactive) | > 100 µM (inactive) |  | > 100 µM (inactive) | > 100 µM (inactive) | > 100 µM (inactive) | > 100 µM (inactive) | > 100 µM (inactive) | > 100 µM (inactive) | > 100 µM (inactive) | > 100 µM (inactive) | > 100 µM (inactive) | > 100 µM (inactive) | > 100 µM (inactive) | > 100 µM (inactive) | > 100 µM (inactive) | > 100 µM (inactive)
CCC12C=CCN3CC[C@]4(C(=C(C(=O)OC)[C@@H]1Nc1ncnc5c1ncn5C1OC(COC(C)=O)C(OC(C)=O)C1OC(C)=O)Nc1ccccc14)C32 (some centres not stated) | 2.45 µM (inactive) | 1.88 µM (inactive) | 4.78 µM (inactive) | 2.82 µM (inactive) | 2.23 µM (inactive) | 2.85 µM (inactive) | 3.18 µM (inactive) | 1.75 µM (inactive) | 3.3 µM (inactive) | 4.9 µM (inactive) | 1.98 µM (inactive) | 2.42 µM (inactive) | 3.27 µM (inactive) | 2.05 µM (inactive) | 3.05 µM (inactive) | 2.36 µM (inactive) | 2.43 µM (inactive) | 5.3 µM (inactive)
CC(C)N(C(=O)C12C3C4C5(C#N)C3C1(C#N)C5C42C#N)C(C)C (configuration not stated) | > 100 µM (inactive) | > 100 µM (inactive) | > 100 µM (inactive) | > 100 µM (inactive) | > 100 µM (inactive) | > 100 µM (inactive) | > 100 µM (inactive) | > 100 µM (inactive) | > 100 µM (inactive) | > 100 µM (inactive) | > 100 µM (inactive) | > 100 µM (inactive) | > 100 µM (inactive) | > 100 µM (inactive) | > 100 µM (inactive) | > 100 µM (inactive) | > 100 µM (inactive) | > 100 µM (inactive)
COc1cc(OC)c2c(c1)C(=O)C(CC1(C)OCCCO1)=CC2=O | 1.74 µM (inactive) | 14.3 µM (inactive) | 14.3 µM (inactive) | 5.35 µM (inactive) | 13.8 µM (inactive) | 17.9 µM (inactive) | 2.74 µM (inactive) | 4.34 µM (inactive) | 2.05 µM (inactive) | 8.45 µM (inactive) | 8.55 µM (inactive) | 7.62 µM (inactive) | 3.78 µM (inactive) | 13.9 µM (inactive) | 14.6 µM (inactive) | 20 µM (inactive) | 11 µM (inactive) | 13 µM (inactive)
COc1cc2c(c(OC)c1OC)-c1ccc(SC)c(=O)cc1[C@@H](NC(=O)c1ccc(C#N)cc1)CC2 | < 0.01 µM (active) | < 0.01 µM (active) | < 0.01 µM (active) | < 0.01 µM (active) | < 0.01 µM (active) | < 0.01 µM (active) | < 0.01 µM (active) | < 0.01 µM (active) | < 0.01 µM (active) | < 0.01 µM (active) | < 0.01 µM (active) | < 0.01 µM (active) | < 0.01 µM (active) | < 0.01 µM (active) | < 0.01 µM (active) | < 0.01 µM (active) | 0.146 µM (active) | < 0.01 µM (active)
